Experimental data: paper PMC6753678, “Fueling Open Innovation for Malaria Transmission-Blocking Drugs: Hundreds of Molecules Targeting Early Parasite Mosquito Stages” (Frontiers in Microbiology, 2019)
Read-outs that look alike come from different tables or passages of the source.

Assays:
HepG2 cells = experiment: HepG2 cytotoxicity assay; details: for IC50: read-out: HepG2 cytotoxicity assay IC50, dose response confirmation; for Pb ODA (this manuscript) HepG2 cytoxicity: HepG2 cytotoxicity listed with the Pb ODA data set (this manuscript)
Description: Briefly, HepG2 cells were seeded onto compound-treated 384 well plates at a density of 2,500 cells per well in Minimal Essential Medium (MEM) plus 10% fetal bovine serum and 1% non-essential amino acids solution (NEAA). Cells were incubated with test compounds or 50 μM doxorubicin (positive) and DSMO (negative) controls at 37°C for 48 h in a humidified 5% CO2 atmosphere. […] Cell viability was then measured in a fluorescent plate reader and percent inhibition calculated with respect to positive and negative controls.

[1] = tested on: P. berghei ookinete development; details: for % inhibition, Replicate A / % inhibition, Replicate B: primary screen at 1 μM
[2] = tested on: 3D7-strain P. falciparum asexual parasites; experiment: P. falciparum asexual growth inhibition assay (Pf GIA); format: cell-based, Plasmodium falciparum; details: dose response confirmation; read-out: Pf asexual growth inhibition assays IC50
Description: The asexual activity of active compounds was tested in dose response with parasite lactate dehydrogenase (LDH) activity used as a readout of parasite viability as described in [Gamo et al. (2010)]. Briefly, 3D7-strain P. falciparum asexual parasites were diluted to 0.25% parasitemia, 2% hematocrit in culture medium composed of RPMI medium with 25 mM HEPES, 2% D-sucrose, 0.3% L-glutamine, 150 μM hypoxanthine plus 5% albumax. 25 μl of parasite inoculum was then dispensed into each well of a 384 well plate containing test compounds and positive (50 μM chloroquine) and negative (DMSO) controls. Plates were incubated for 72 h at 37°C in a 5% CO2, 5%O2, 90% N2 environment before being frozen at −70°C. Plates were then thawed and 70 μl of reaction mix (143 mM sodium L-lactate, 143 mM 3-acetyl pyridine adenine dinucleotide, […] Nitro Blue tetrazolium chloride, […] diaphorase (2.83 U/ml), 0.7% Tween 20, 100 mM Tris–HCl pH 8.0) was added to each well using a Multidrop Combi automated dispenser. Plates were shaken to mix and then absorbance at 650 nm was measured after 10 min incubation at room temperature. Percent inhibition of asexual growth was then calculated with respect to positive and negative controls. Data presented is the mean of three independent biological replicates.

[3] = unified HepG2 value across the three screens
[4] = read-out: Pb ODA IC50, this manuscript
[5] = read-out: Pb Ookinete development assay IC50, dose response confirmation
[6] = read-out: Pb ODA (this manuscript) IC50, P. berghei ookinete development assay, this manuscript

Row | Compound | IC50 (HepG2 cells) | Unified cytotox (HepG2 cells; [3]) | Is compound selective in assay? Pb ODA active? ([1]; 1: YES, 0: NO) | % inhibition, Replicate A [1] | % inhibition, Replicate B [1] | IC50 [1, 4] | IC50 [1, 5] | IC50 [2] | Pb ODA (this manuscript) HepG2 cytoxicity (HepG2 cells) | Is compound selective in assay? Pb ODA active? [1] | IC50 [1, 6] | HepG2 cytoxicity (Pb ODA, this manuscript) (HepG2 cells; HepG2, this manuscript) | Unified cytotox (HepG2 cells; HepG2 values of the three screens unified)
1 | CSc1ccc(C=CC(=O)NC(=O)c2ccccc2O)cc1 [TCMDC-123758] | 73300 nM | 73.28 µM | 1 (1: YES) | 53.84% | 38.37% | 530 nM | 526 nM | 179 nM | – | – | – | – | –
2 | Cc1cc(C(=O)OCC(=O)Nc2c(C)n(C)n(-c3ccccc3)c2=O)c(C)n1-c1ccc(F)cc1 [TCMDC-123794] | 19500 nM | 19.50 µM | 1 (1: YES) | 88.45% | 92.59% | – | 210 nM | 43 nM | – | – | – | – | –
3 | Cc1nc(/N=C(\N)NC(=O)NC2CCCCC2)nc2ccccc12 [TCMDC-123808] | 35500 nM | – | – | 57.73% | 102.93% | – | 1080 nM | 1.7 nM | 35.48 µM | 1 (key: 1: YES; 0: NO) | 1080 nM | – | –
4 | Cc1cc(NC(c2ccc(Cl)cc2)c2ccc3cccnc3c2O)no1 (stereo not shown) [TCMDC-123828] | 1380 nM | 1.38 µM | 0 (0: NO) | 41.30% | 61.82% | 3020 nM | 3020 nM | 2550 nM | – | – | – | – | –
5 | Cc1sc2ncnc(Sc3nc4ccccc4[nH]3)c2c1C [TCMDC-123835] | 100000 nM | 100.00 µM | 1 (1: YES) | 69.92% | 40.18% | 920 nM | 919 nM | 748 nM | – | – | – | – | –
6 | CCOC(=O)c1c[nH]c2c(ccc3ccccc32)c1=O [TCMDC-123857] | 100000 nM | 100.00 µM | 1 (1: YES) | 88.11% | 83.13% | 560 nM | 562 nM | 443 nM | – | – | – | – | –
7 | Cc1ccc(C2=NNC3(S2)C(=O)N(C)c2ccccc23)cc1 (stereo not shown) [TCMDC-123863] | 56900 nM | 56.89 µM | 1 (1: YES) | 93.73% | 58.53% | 2440 nM | 2440 nM | 3270 nM | – | – | – | – | –
8 | CN(C)c1ccc(C=Cc2nc(=O)c3ccccc3o2)cc1 [TCMDC-123870] | 100000 nM | – | – | 83.52% | 65.62% | – | 155 nM | 41 nM | 100.00 µM | 1 (key: 1: YES; 0: NO) | 150 nM | – | –
9 | O=C(c1cccs1)N1CCN(c2ccc([N+](=O)[O-])c(NC3CC3)c2)CC1 [TCMDC-123877] | 100000 nM | 100.00 µM | 1 (1: YES) | 53.49% | 54.36% | 1700 nM | 1700 nM | 2660 nM | – | – | – | – | –
10 | O=c1nc(C=Cc2ccc(Br)cc2)oc2ccccc12 [TCMDC-123878] | 100000 nM | – | – | 55.97% | 32.93% | – | 2720 nM | 1730 nM | 100.00 µM | 1 (key: 1: YES; 0: NO) | 2720 nM | – | –
11 | Br.CC(CCON1C(N)=NC(N)=NC1(C)C)c1ccc(Cl)c(Cl)c1 (stereo not shown) [TCMDC-123922] | 1 nM | – | 0 (0: NO) | 47.79% | 55.73% | 5760 nM | 5760 nM | < 0.2 nM | – | – | – | 0.001 µM | 0.001 µM
12 | O=c1c2ccccc2[nH]c2cc(Cl)ccc12 [TCMDC-123989] | 50700 nM | 50.70 µM | 1 (1: YES) | 43.19% | 69.34% | 1180 nM | 1180 nM | 1280 nM | – | – | – | – | –
13 | CC(Cl)=CCc1c(C)[nH]c2c(ccc3ccccc32)c1=O [TCMDC-124085] | 100000 nM | – | – | 85.49% | 96.24% | – | 328 nM | 276 nM | 100.00 µM | 1 (key: 1: YES; 0: NO) | 330 nM | – | –
14 | CCOC(=O)C(=O)N1c2ccc(OCC)cc2-c2c(ssc2=S)C1(C)C [TCMDC-124090] | 100000 nM | 100.00 µM | 1 (1: YES) | 23.50% | 54.71% | 2010 nM | 2010 nM | 89 nM | – | – | – | – | –
15 | CC(C)c1nc(N2CCN(C(=S)NCc3ccccc3)CC2)c(C#N)c2c1COC(C)(C)C2 [TCMDC-124093] | 1.7 nM | 0.0017 µM | 0 (0: NO) | 50.94% | 54.99% | – | 760 nM | 55 nM | – | – | – | – | –
16 | Cc1cc(C)cc(-n2c(C)cc(/C=C3\SC(=Nc4ccc(Cl)cc4)NC3=O)c2C)c1 [TCMDC-124103] | 100000 nM | 100.00 µM | 1 (1: YES) | 110.51% | 94.72% | 560 nM | 561 nM | 32 nM | – | – | – | – | –
17 | CCOC(=O)c1c(CN2CCCC2)n(-c2ccccc2)c2cc(Br)c(O)cc12 [TCMDC-124122] | 71600 nM | 71.61 µM | 0 (0: NO) | 64.42% | 39.97% | 7760 nM | 7760 nM | 658 nM | – | – | – | – | –
18 | Cc1ccc(Nc2nc(N/N=C/c3cccc(O)c3)nc(Nc3ccc([N+](=O)[O-])cc3)n2)cc1C [TCMDC-124125] | 100000 nM | 100.00 µM | 1 (1: YES) | 68.98% | 54.76% | 3830 nM | 3830 nM | 1820 nM | – | – | – | – | –
19 | COc1ccc2nc3cc(Cl)ccc3c(NCCCO)c2c1 [TCMDC-124144] | 7080 nM | – | – | 19.58% | 67.10% | – | 1300 nM | 210 nM | 7.08 µM | 0 (key: 1: YES; 0: NO) | – | – | –
20 | CC(C)CN1CCN(c2nc(C#N)c3c(c2C(=S)NC2CCCCC2)CC(C)(C)OC3)CC1 [TCMDC-124173] | 100000 nM | 100.00 µM | 1 (1: YES) | 37.56% | 54.94% | 4890 nM | 4890 nM | 415 nM | – | – | – | – | –
21 | COc1ccc(C=NNc2nc(O)cc(-c3ccccc3)n2)cc1OC [TCMDC-124217] | 58200 nM | 58.21 µM | 1 (1: YES) | 58.99% | 66.09% | 500 nM | 497 nM | 630 nM | – | – | – | – | –
22 | COc1cc(OC)nc(C(Sc2ccc(NC(=O)c3cccs3)cc2)c2ccccc2)n1 (stereo not shown) [TCMDC-124257] | 100000 nM | 100.00 µM | 1 (1: YES) | 29.98% | 55.99% | 970 nM | 973 nM | 184 nM | – | – | – | – | –
23 | COc1ccc2nc3cc(Cl)ccc3c(NCCO)c2c1.Cl [TCMDC-124272] | 15700 nM | – | – | 66.85% | 79.62% | – | 843 nM | 404 nM | 15.67 µM | 1 (key: 1: YES; 0: NO) | 840 nM | – | –
24 | Cc1ccc2[nH]c(C)c(Br)c(=O)c2c1 [TCMDC-124347] | 100000 nM | 100.00 µM | 1 (1: YES) | 68.86% | 49.90% | 2450 nM | 2450 nM | 3820 nM | – | – | – | – | –
